Experimental data from US20140297199A1, “DRUG SCREENING METHOD AND USES THEREOF” (COLD SPRING HARBOR LABORATORY, priority 2011, published 2014).
Entries after “also recorded” stand apart in the source; their conditions may differ.

Tests used:
[1] = system: c-fos-GFP expression in the whole mouse brain; experiment: c-fos-GFP pharmacomap by STP tomography, haloperidol vs saline (Example 5); assay type: in vivo; settings: 3 hours
Excerpt: This example analyzes the effects of antipsychotic drugs on neural circuit activity in the whole mouse brain. The method comprises the following steps: (1) an automated whole-brain microscopy, STP tomography, was used to image brains of c-fos-GFP mice, which express GFP as a marker for native c-fos; (2) the distribution of the activated c-fos-GFP-positive neurons was computationally detected by convolutional neural networks; (3) the processed datasets were warped and registered in a 3D reference brain and voxelized for statistical comparisons.
Transgenic c-fos-GFP mice (Reijmers et al., Science 317:1230-1233 (2007)), expressing GFP as a surrogate marker for native c-fos, was injected with intraperitoneally with haloperidol (1 mg/kg) or saline (control). The mice were returned to their home cage and left undisturbed for 3 hours, a time period needed for the induction and fluorophore maturation of c-fos-GFP. Next, the mice were deeply anesthetized and euthanized by intra-cardiac perfusion with saline and paraformaldehyde for brain fixation. The mice were decapitated and the brain was extracted, postfixed and embedded in agar for STP tomography. Three PMTs (C1-C3) can be used for multi-color imaging. […]

[2] = system: c-fos-GFP expression in the transgenic c-fos-GFP mouse brain; experiment: c-fos-GFP induction in transgenic c-fos-GFP mouse brain, whole-mount two-photon microscopy (Example 3); assay type: in vivo; settings: three hours, vs saline, one animal per treatment
Excerpt: High-throughput whole-brain imaging of an immediate early gene (IEG) induction was used in transgenic “indicator” mice that express GFP from specific IEG promoters, such as c-fos and Arc promoters in c-fos-GFP and Arc-GFP transgenic mice ((Barth et al., J Neurosci 24, 6466-6475 (2004); Grinevich et al., Journal of Neuroscience Methods 184, 25-36 (2009)). In these mice, GFP represents a readily detectable surrogate for the expression of the native gene.
Whole-mount two-photon microscopy was used for automated mouse brain imaging. The instrument works as follows: First, a fixed mouse brain embedded in an agar block is placed in a water bath on top of a computer controlled x-y-z stage. The stage moves the brain under the objective, so that the top is imaged as a mosaic of individual fields of view (“tiles”). […]
To validate the entire pipeline of data processing, the trained neural networks were applied to extract c-fos-GFP signal in brains of two mice, one injected with saline and the other with haloperidol at 1 mg/kg (FIG. 27). Three hours later, the mice were euthanized, their brains imaged by whole-mount two-photon microscopy, and c-fos-GFP-positive cells were computationally detected and visualized as a three-dimensional representation of intensity centroids (FIG. 17).

[3] = system: c-fos-GFP expression in the mouse brain; experiment: Haloperidol dose-response c-fos-GFP pharmacomaps (Example 10); assay type: in vivo
Excerpt: For example, before injection, male mice (8 weeks old) are single-housed for five days in order to limit the variability of the baseline c-fos-GFP expression.
For example, the datasets are represented as the number of centroids (c-fos-GFP cells) lying within an evenly spaced grid of 450×650×300 elements (voxels), each of size 20×20×50 microns.
Drugs have different effects and side effects at different dosages.

[4] = system: c-fos-GFP expression in the mouse brain; experiment: c-fos-GFP pharmacomaps of three antipsychotics at a moderate dosage (Example 9); settings: 5 mouse brains per drug
[5] = haloperidol 0.25, risperidone 1.0, aripiprazole 1.0 mg/kg, vs saline-injected control

SMILES: O=C(CCCN1CCC(O)(c2ccc(Cl)cc2)CC1)c1ccc(F)cc1 [haloperidol]
- previously identified brain regions detected as statistically different vs saline ([1]; 1 mg/kg i.p., n=7 vs saline n=7, negative binomial regressions, FDR 0.01): Medial prefrontal Cx, Cingulate Cx, Piriform Cx, Major Islands of Calleja, Nc Accumbens (whole, shell, core), Lateral septum, Striatum (whole), Medial preoptic area, Paraventricular nucleus, Bed nucleus of stria terminalis, Medial thalamus
- number of c-fos-GFP cells in the brain (c-fos-GFP pharmacomap) ([1]; 1 mg/kg intraperitoneally, saline brain 176,771): 545,838 c-fos-GFP cells
- c-fos-GFP-positive cells per coronal section, caudal sections ([2]; 1 mg/kg, preliminary quantitation): increased numbers of c-fos-GFP-positive cells in many caudal coronal sections; also recorded: broad distribution of haloperidol-evoked c-fos-GFP induction in the caudal sections
- brain regions with c-fos-GFP induction ([2]; i.p. 1 mg/kg): expected induction of c-fos-GFP in the striatum and lateral septum; also recorded: expected strong induction of c-fos-GFP in the caudate putamen; also recorded: Strong labeling is induced in striatum (A) and lateral septum (B)
- brain regions activated (pharmacomap A) ([3]; 0.05 mg/kg (low)): activated dorsomedial hypothalamus (HYP), ACB, and CP
- brain regions activated (pharmacomap B) ([3]; 0.25 mg/kg (medium)): activated the same structures as shown in pharmacomap A, plus OT, LS and PL
- brain regions activated (pharmacomap C) ([3]; 1.0 mg/kg (high)): more widespread activation, including, in addition, prelimbic (PL), infralimbic (IL), and lateral entorhinal (ENT) areas, BST, central amygdala (CEA) and PVT
- numbers of activated areas across dosages ([3]; 0.05, 0.25 and 1.0 mg/kg): increasing numbers of activated areas observed with increasing dosage
- strength of c-Fos induction within commonly activated regions (caudate putamen and nucleus accumbens) ([3]; 0.05, 0.25 and 1.0 mg/kg, data not shown): significantly increased with increasing dosage
- brain regions activated (pharmacomap) ([4]; haloperidol 0.25 mg/kg, risperidone 1.0 mg/kg, aripiprazole 1.0 mg/kg, vs saline): activated a major portion of the caudate putamen (CP) and nucleus accumbens (ACB), as well as the olfactory tubercle (OT), prelimbic cortex (PL), lateral septum (LS) and dorsomedial hypothalamus (HYP)
- c-fos-GFP activation, Anterior cingulate cortex (ACAd) [4, 5]: up
- c-fos-GFP activation, Anterior cingulate cortex (ACAv) [4, 5]: 0
- c-fos-GFP activation, Basal, Central, Cortic. Amydgala (AMG) [4, 5]: 0
- c-fos-GFP activation, Bed nucleus of Stria Terminalis (BST) [4, 5]: 0
- c-fos-GFP activation, Caudate-putamen (CP, dorso-medial) [4, 5]: up
- c-fos-GFP activation, Caudate-putamen (CP, ventro-medial) [4, 5]: up
- c-fos-GFP activation, Caudoputamen (CP, dorsolateral) [4, 5]: up
- c-fos-GFP activation, Caudoputamen (CP, ventrolateral) [4, 5]: up
- c-fos-GFP activation, Central medial thalamic nucleus [4, 5]: 0
- c-fos-GFP activation, Claustrum (CLA) [4, 5]: 0
- c-fos-GFP activation, Dorsomedial hypoth. (HYP) [4, 5]: up
- c-fos-GFP activation, Gostatory Cx (GU) [4, 5]: 0
- c-fos-GFP activation, Hippocampus: CA1, CA2, CA3 (HF) [4, 5]: 0
- c-fos-GFP activation, Hippocampus: DG [4, 5]: 0
- c-fos-GFP activation, Hypothalamus, ventromedial nuclei [4, 5]: 0
- c-fos-GFP activation, Infralimbic cortex (IL) [4, 5]: up
- c-fos-GFP activation, Insular area, agranular [4, 5]: 0
- c-fos-GFP activation, Lateral Septum (LS) [4, 5]: up
- c-fos-GFP activation, Lateral Spetal Nucl, dorsal part [4, 5]: 0
- c-fos-GFP activation, Midline Thalamus (Nucl Reuniens, RE) [4, 5]: 0
- c-fos-GFP activation, Midline Thalamus (PVT) [4, 5]: 0
- c-fos-GFP activation, Motor area, primary (MOp) [4, 5]: 0
- c-fos-GFP activation, Motor area, secondary (MOs) [4, 5]: 0
- c-fos-GFP activation, Nucleus Accumbens (ACB), core [4, 5]: up
- c-fos-GFP activation, Nucleus Accumbens (ACB), shell [4, 5]: up
- c-fos-GFP activation, Nucleus Accumbens (ACB), whole [4, 5]: up
- c-fos-GFP activation, Olfactory tubercle (OT) [4, 5]: up
- c-fos-GFP activation, Orbital cortex ventral (VO) [4, 5]: 0
- c-fos-GFP activation, Orbital cx (ORB), lateral [4, 5]: 0
- c-fos-GFP activation, Orbital cx (ORB), medial [4, 5]: up
- c-fos-GFP activation, Piriform cx (PIR) [4, 5]: 0
- c-fos-GFP activation, Prelimbic cx (PL) [4, 5]: up
- c-fos-GFP activation, RSPd, v, d and agl [4, 5]: 0
- c-fos-GFP activation, Red nucleus (RN) [4, 5]: 0
- c-fos-GFP activation, Somatosensory cx, primary [4, 5]: 0
- c-fos-GFP activation, Striatum, ventro-lateral [4, 5]: 0
- c-fos-GFP activation, Superior Colliculus (SC) [4, 5]: 0
- c-fos-GFP activation, Temporal cortex [4, 5]: 0
- c-fos-GFP activation, Ventromedial Thalamus (caudally) [4, 5]: 0
- c-fos-GFP activation, Zona Inserta [4, 5]: 0
